The results in this text go back to patent US12187710B2, “Salt of Syk inhibitor and crystalline form thereof” (CHIA TAI TIANQING PHARMACEUTICAL GROUP CO., LTD., priority 2018, dated 2025).

A short description of data set [1]: Stability of crystalline form at high temperature, high humidity and illumination (XRPD). The format is physicochemical. An excerpt: The vials in which the samples were placed at high temperature and high humidity were sealed with aluminum foil, and small holes were provided in the aluminum foil to ensure that the samples were sufficiently contacted with atmospheric air. The vial in which the sample was placed under strong light was placed open without sealing with aluminum foil. The samples placed under different conditions were taken and tested for XRPD spectrum on day 5 and day 10.

The nature of data set [2]: Stability of crystalline form suspended in organic solvent (XRPD). Conditions: methanol, ethanol, ethyl acetate, acetone, acetonitrile, tetrahydrofuran, 1,4-dioxane, n-hexane; 20° C. and 50° C., 24 h. The format is physicochemical. How it is done:
After being added with methanol (4 mL), the glass vial was placed on a magnetic stirrer, and the mixture was stirred at 20° C. and 50° C., each for 24 h.
According to the above method, ethanol, ethyl acetate, acetone, acetonitrile, tetrahydrofuran, 1,4-dioxane and n-hexane were used as solvents to conduct parallel tests.

Data set [3] can be described thus: Hygroscopicity by dynamic vapor sorption (DVS). The format is physicochemical. How it is done:
Instrument: SMS DVS Advantage;
The DVS parameters are as follows:
Balancing: dm/dt=0.01%/min (shortest: 10 min, longest: 180 min)
drying: drying at 0% RH for 120 min
RH (%) test gradient: 10%
Range of RH (%) test gradient: 0%-90%-0%

In the next data set the test system is AKT phosphorylation. Nature of the data set: In vitro test of inhibition on AKT phosphorylation in IgM-stimulated Ramos cells (ELISA). The format is cell-based. The note with it: anti-human IgM stimulation. An excerpt:
5.1 Purpose of experiment: to detect the protein kinase AKT phosphorylation in cells by enzyme-linked immunosorbent assay (ELISA), and evaluate the inhibition of the compound on the AKT phosphorylation by taking the half-inhibitory concentration (IC50) value of the compound as an index. […]

Structures can show the parent of a compound that is named as a salt.

In the case of `Cn1c(=O)c(Nc2ccc(N3CCN(C4COC4)CC3)cn2)cc2c(F)c(-c3cc[nH]n3)ccc21` [5-fluoro-1-methyl-3-((5-(4-(oxetan-3-yl)piperazin-1-yl)pyridin-2-yl)amino)-6-(1H-pyrazol-3-yl)quinolin-2(1H)-one hydrochloride], the Crystalline form entry is given as “Form A crystal” in data set [1] (Day 0 (initial), XRPD); “Form A crystal” in data set [1] (High humidity (room temperature/relative humidity 92.5%, open), Day 5, XRPD); “Form A crystal” in data set [1] (High humidity (room temperature/relative humidity 92.5%, open), Day 10, XRPD); “Form A crystal” in data set [1] (High temperature (60° C., open), Day 5, XRPD); “Form A crystal” in data set [1] (High temperature (60° C., open), Day 10, XRPD); “Form A crystal” in data set [1] (Illumination (total illuminance of 1.2 × 10^6 Lux·hr/near UV energy of 200 w·hr/m^2, open), XRPD). In addition, the “Stability under high temperature, high humidity and illumination” value in data set [1] (overall conclusion) is reported as “good stability”. Also, in data set [2], the “XRPD spectrum after suspension in solvent” value is reported as “doesn't change”. For the same compound, the “ΔW (DVS weight gain)” value in data set [3] (25° C., RH 0%-90%-0%) stood at 1.371%. The Hygroscopicity entry in data set [3] (25±1° C. and 80±2% RH) is “less hygroscopic”.

In turn, `Cn1c(=O)c(Nc2ccc(N3CCN(C4COC4)CC3)cn2)cc2c(F)c(-c3cc[nH]n3)ccc21` [Compound of formula I, 5-fluoro-1-methyl-3-((5-(4-(oxetan-3-yl)piperazin-1-yl)pyridin-2-yl)amino)-6-(1H-pyrazol-3-yl)quinolin-2(1H)-one] yielded a half-maximal inhibitory concentration (IC50) in the data set with AKT phosphorylation of 170 nM.
